From US9284300B2, “Pyridazinone derivatives” (Merck Patent GmbH, priority 2007, dated 2016)

Test system: TPR-Met/NIH3T3 cells
Test: In-vivo tests: tumour volume, TPR-Met/NIH3T3 cells injected subcutaneously in Balb/C mice
Conditions: female Balb/C mice, s.c. TPR-Met/NIH3T3 tumour, 200 mg/kg daily by gastric tube, 9 days
Protocol: They were acclimatised to our keeping conditions for 7 days. Each mouse was subsequently injected subcutaneously in the pelvic area with 4 million TPR-Met/NIH3T3 cells in 100 μl of PBS (without Ca++ and Mg++).

| Structure (SMILES) | antitumoural action (tumour volume) |
| --- | --- |
| CN1CCN(c2cnc(-c3cccc(Cn4nc(-c5cc(F)cc(F)c5)ccc4=O)c3)nc2)CC1 [A18, 6-(3,5-difluorophenyl)-2-{3-[5-(4-methylpiperazin-1-yl)pyrimidin-2-yl]-benzyl}-2H-pyridazin-3-one] | significant antitumoural action |

Biological target: T1, Met kinase (Homo sapiens, UniProt P08581)
Test: Met kinase inhibition, cell assay
Format: cell-based
Conditions: not given
Target sequence in this assay (P08581 25-1390): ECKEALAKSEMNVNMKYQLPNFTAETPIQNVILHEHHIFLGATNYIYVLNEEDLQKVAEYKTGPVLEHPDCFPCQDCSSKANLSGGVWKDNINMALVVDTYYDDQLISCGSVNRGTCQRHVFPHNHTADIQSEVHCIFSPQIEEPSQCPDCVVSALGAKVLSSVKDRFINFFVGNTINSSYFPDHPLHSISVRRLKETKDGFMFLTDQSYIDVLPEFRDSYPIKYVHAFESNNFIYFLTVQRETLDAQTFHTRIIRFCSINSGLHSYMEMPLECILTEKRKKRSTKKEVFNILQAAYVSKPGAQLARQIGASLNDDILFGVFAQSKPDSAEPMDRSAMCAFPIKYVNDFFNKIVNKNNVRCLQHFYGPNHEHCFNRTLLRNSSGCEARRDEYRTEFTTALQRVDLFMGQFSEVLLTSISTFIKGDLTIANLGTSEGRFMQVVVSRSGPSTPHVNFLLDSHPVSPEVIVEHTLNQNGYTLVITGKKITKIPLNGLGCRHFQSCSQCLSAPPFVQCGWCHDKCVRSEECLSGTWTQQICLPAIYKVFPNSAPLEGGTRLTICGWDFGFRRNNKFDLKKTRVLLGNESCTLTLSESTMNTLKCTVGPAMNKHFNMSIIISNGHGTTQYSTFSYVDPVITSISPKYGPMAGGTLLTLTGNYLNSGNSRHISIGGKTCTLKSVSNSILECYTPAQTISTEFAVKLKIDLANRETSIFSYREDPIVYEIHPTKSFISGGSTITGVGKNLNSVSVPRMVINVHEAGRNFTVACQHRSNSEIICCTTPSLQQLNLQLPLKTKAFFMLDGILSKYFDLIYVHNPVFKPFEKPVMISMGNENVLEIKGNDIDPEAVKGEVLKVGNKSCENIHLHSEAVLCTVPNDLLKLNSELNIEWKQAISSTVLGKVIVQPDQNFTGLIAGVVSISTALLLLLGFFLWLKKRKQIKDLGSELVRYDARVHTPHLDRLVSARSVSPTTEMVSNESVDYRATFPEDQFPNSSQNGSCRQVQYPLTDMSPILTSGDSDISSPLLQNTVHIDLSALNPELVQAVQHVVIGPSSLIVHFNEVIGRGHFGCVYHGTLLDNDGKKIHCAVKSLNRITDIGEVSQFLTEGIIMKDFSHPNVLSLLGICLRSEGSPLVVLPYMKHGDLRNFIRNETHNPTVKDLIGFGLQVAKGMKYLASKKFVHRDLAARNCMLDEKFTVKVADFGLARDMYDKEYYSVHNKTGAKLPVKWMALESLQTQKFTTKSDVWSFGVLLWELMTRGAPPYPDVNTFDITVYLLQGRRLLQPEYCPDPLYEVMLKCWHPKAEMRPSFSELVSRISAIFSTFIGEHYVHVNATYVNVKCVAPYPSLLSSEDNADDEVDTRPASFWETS

| Structure (SMILES) | IC50 |
| --- | --- |
| CN1CCN(c2cnc(-c3cccc(Cn4nc(-c5cc(F)cc(F)c5)ccc4=O)c3)nc2)CC1 [A18, 6-(3,5-difluorophenyl)-2-{3-[5-(4-methylpiperazin-1-yl)pyrimidin-2-yl]-benzyl}-2H-pyridazin-3-one] | 1 to 1000 nM |
| Cc1cnc(-c2cccc(Cn3nc(-c4cccc(C#N)c4)ccc3=O)c2)nc1 [A15, 3-{1-[3-(5-methylpyrimidin-2-yl)benzyl]-6-oxo-1,6-dihydropyridazin-3-yl}benzonitrile] | 1 to 1000 nM |
| N#Cc1cccc(-c2ccc(=O)n(Cc3cccc(-c4ncc(N5CCNCC5)cn4)c3)n2)c1 [A288, 3-{6-oxo-1-[3-(5-piperazin-1-ylpyrimidin-2-yl)benzyl]-1,6-dihydropyridazin-3-yl}benzonitrile] | 1 to 1000 nM |
| O=c1ccc(-c2cc(F)cc(F)c2)nn1Cc1cccc(-c2ncc(N3CCNCC3)cn2)c1 [A19, 6-(3,5-difluorophenyl)-2-[3-(5-piperazin-1-ylpyrimidin-2-yl)benzyl]-2H-pyridazin-3-one] | 1 to 1000 nM |
| Cc1cnc(-c2cccc(Cn3nc(-c4cc(F)c(F)c(F)c4)ccc3=O)c2)nc1 [A1, 2-[3-(5-methylpyrimidin-2-yl)benzyl]-6-(3,4,5-trifluorophenyl)-2H-pyridazin-3-one] | 1 to 1000 nM |
| O=c1ccc(-c2cc(F)cc(F)c2)nn1Cc1cccc(-c2ncc(-c3cnn(C4CCNCC4)c3)cn2)c1 [A63] | 1 to 1000 nM |
| CN(C)CCCOc1cnc(-c2cccc(Cn3nc(-c4cnn(C)c4)ccc3=O)c2)nc1 [A209, 2-{3-[5-(3-dimethylaminopropoxy)pyrimidin-2-yl]-benzyl}-6-(1-methyl-1H-pyrazol-4-yl)-2H-pyridazin-3-one] | 1 to 1000 nM |
| CN1CCC(Oc2cnc(-c3cccc(Cn4nc(-c5cnn(C)c5)ccc4=O)c3)nc2)CC1 [A226, 2-{3-[5-(1-methylpiperidin-4-yloxy)pyrimidin-2-yl]-benzyl}-6-(1-methyl-1H-pyrazol-4-yl)-2H-pyridazin-3-one] | 1 to 1000 nM |
| CN(C)C=Nc1cnc(-c2cccc(Cn3nc(-c4cc(F)cc(F)c4)ccc3=O)c2)nc1 [A16, N′-(2-{3-[3-(3,5-difluorophenyl)-6-oxo-6H-pyridazin-1-ylmethyl]phenyl}-pyrimidin-5-yl)-N,N-dimethylformamidine] | 1 to 1000 nM |
| CN1CCN(c2cnc(-c3cccc(Cn4nc(-c5cc(F)c(F)c(F)c5)ccc4=O)c3)nc2)CC1 [A20, 2-{3-[5-(4-methylpiperazin-1-yl)pyrimidin-2-yl]benzyl}-6-(3,4,5-trifluorophenyl)-2H-pyridazin-3-one] | 1 to 1000 nM |
| CN1CCC(Oc2cnc(-c3cccc(Cn4nc(-c5cc(F)cc(F)c5)ccc4=O)c3)nc2)CC1 [A23, 6-(3,5-difluorophenyl)-2-{3-[5-(1-methylpiperidin-4-yloxy)pyrimidin-2-yl]benzyl}-2H-pyridazin-3-one] | 1 to 1000 nM |
| O=c1ccc(-c2cc(F)cc(F)c2)nn1Cc1cccc(-c2ncc(OC3CCNCC3)cn2)c1 [A102, 6-(3,5-difluorophenyl)-2-{3-[5-(piperidin-4-yloxy)pyrimidin-2-yl]benzyl}-2H-pyridazin-3-one] | 1 to 1000 nM |
| Cc1cnc(-c2cccc(Cn3nc(-c4ccc5nsnc5c4)ccc3=O)c2)nc1 [A79] | 1 to 1000 nM |
| Nc1cnc(-c2cccc(Cn3nc(-c4cc(F)cc(F)c4)ccc3=O)c2)nc1 [A17, 2-[3-(5-aminopyrimidin-2-yl)benzyl]-6-(3,5-difluorophenyl)-2H-pyridazin-3-one] | 1 to 1000 nM |
| CN1CCN(c2cnc(-c3cccc(Cn4nc(-c5cccc(C#N)c5)ccc4=O)c3)nc2)CC1 [A287, 3-(1-{3-[5-(4-methylpiperazin-1-yl)pyrimidin-2-yl]benzyl}-6-oxo-1,6-dihydropyridazin-3-yl)benzonitrile] | 1 to 1000 nM |
| Cn1cc(-c2ccc(=O)n(Cc3cccc(-c4ncc(-c5cnn(CCN6CCCC6)c5)cn4)c3)n2)cn1 [A169] | 1 to 1000 nM |
| Cn1cc(-c2cnc(-c3cccc(Cn4nc(-c5cc(F)cc(F)c5)ccc4=O)c3)nc2)cn1 [A26, 6-(3,5-difluorophenyl)-2-{3-[5-(1-methyl-1H-pyrazol-4-yl)pyrimidin-2-yl]benzyl}-2H-pyridazin-3-one] | 1 to 1000 nM |
| O=c1ccc(-c2cc(F)cc(F)c2)nn1Cc1cccc(-c2nccc(N3CCNCC3)n2)c1 [A13, 6-(3,5-difluorophenyl)-2-[3-(4-piperazin-1-ylpyrimidin-2-yl)benzyl]-2H-pyridazin-3-one] | 1000 to 10000 nM |
| CN(C)CCCCNC(=O)c1cnc(-c2cccc(Cn3nc(-c4cc(F)c(F)c(F)c4)ccc3=O)c2)nc1 [A35] | 1 to 1000 nM |
| CN1CCC(COc2cnc(-c3cccc(Cn4nc(-c5cc(F)cc(F)c5)ccc4=O)c3)nc2)CC1 [A66] | 1 to 1000 nM |
| CN1CCN(CCOc2cnc(-c3cccc(Cn4nc(-c5cc(F)cc(F)c5)ccc4=O)c3)nc2)CC1 [A57] | 1 to 1000 nM |
| CN1CCN(Cc2cnc(-c3cccc(Cn4nc(-c5cc(F)cc(F)c5)ccc4=O)c3)nc2)CC1 [A14, 6-(3,5-difluorophenyl)-2-{3-[5-(4-methylpiperazin-1-yl-methyl)pyrimidin-2-yl]benzyl}-2H-pyridazin-3-one] | 1 to 1000 nM |
| CN(C)CCOc1cnc(-c2cccc(Cn3nc(-c4cc(F)cc(F)c4)ccc3=O)c2)nc1 [A64, 2-{3-[5-(2-dimethylaminoethoxy)pyrimidin-2-yl]benzyl}-6-(3,5-difluorophenyl)-2H-pyridazin-3-one] | 1 to 1000 nM |
| N#Cc1cccc(-c2ccc(=O)n(Cc3cccc(-c4ncc(-c5cnn(CCN6CCCC6)c5)cn4)c3)n2)c1 [A168, 3-[6-oxo-1-(3-{5-[1-(2-pyrrolidin-1-ylethyl)-1H-pyrazol-4-yl]pyrimidin-2-yl}benzyl)-1,6-dihydropyridazin-3-yl]-benzonitrile] | 1 to 1000 nM |
| O=c1ccc(-c2cc(F)cc(F)c2)nn1Cc1cccc(-c2ncc(Br)cn2)c1 [A25, 2-[3-(5-bromopyrimidin-2-yl)benzyl]-6-(3,5-difluorophenyl)-2H-pyridazin-3-one] | 1 to 1000 nM |
| CN1CCC(COc2cnc(-c3cccc(Cn4nc(-c5cnn(C)c5)ccc4=O)c3)nc2)CC1 [A237, 2-{3-[5-(1-methylpiperidin-4-ylmethoxy)pyrimidin-2-yl]-benzyl}-6-(1-methyl-1H-pyrazol-4-yl)-2H-pyridazin-3-one] | 1 to 1000 nM |

Biological target: T1, Met kinase
Test: Flashplate method (Met kinase)
Format: biochemical
Parameters: 6His (N); purchased Upstate 14-526; host or cells: Sf21 insect cells (S. frugiperda), baculovirus
Conditions: Met kinase inhibition, enzyme assay
Protocol: The test plates used are 96-well Flashplate^R microtitre plates from Perkin Elmer (Cat. No. SMP200).
The full value used is the inhibitor-free kinase reaction. This should be approximately in the range 6000-9000 cpm. The pharmacological zero value used is staurosporin in a final concentration of 0.1 mM. The inhibitory values (IC50) are determined using the RS1_MTS program.
Kinase reaction conditions per well: • 30 μl of assay buffer • 10 μl of substance to be tested in assay buffer with 10% of DMSO • 10 μl of ATP (final concentration 1 μM cold, 0.35 μCi of ^33P-ATP) • 50 μl of Met kinase/substrate mixture in assay buffer; (10 ng of enzyme/well, 50 ng of pAGLT/well)
Target sequence in this assay (P08581 974-1390 limits assumed): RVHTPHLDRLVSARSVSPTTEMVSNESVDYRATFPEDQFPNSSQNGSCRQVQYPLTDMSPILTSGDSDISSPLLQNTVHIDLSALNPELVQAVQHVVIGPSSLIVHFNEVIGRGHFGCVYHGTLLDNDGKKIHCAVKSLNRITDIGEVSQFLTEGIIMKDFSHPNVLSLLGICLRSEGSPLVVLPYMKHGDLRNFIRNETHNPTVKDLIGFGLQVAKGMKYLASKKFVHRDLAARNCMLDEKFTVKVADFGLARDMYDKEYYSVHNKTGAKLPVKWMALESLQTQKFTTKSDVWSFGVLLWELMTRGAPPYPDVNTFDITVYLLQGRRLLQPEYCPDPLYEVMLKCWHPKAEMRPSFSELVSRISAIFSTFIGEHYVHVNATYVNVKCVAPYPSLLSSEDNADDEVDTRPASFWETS

| Structure (SMILES) | IC50 |
| --- | --- |
| Cc1cnc(-c2cccc(Cn3nc(-c4cc(F)c(F)c(F)c4)ccc3=O)c2)nc1 [A1, 2-[3-(5-methylpyrimidin-2-yl)benzyl]-6-(3,4,5-trifluorophenyl)-2H-pyridazin-3-one] | 1 to 1000 nM |
| Cc1ccc(=O)n(-c2cccc(Cn3nc(-c4cc(F)cc(F)c4)ccc3=O)c2)n1 [A8, 1-{3-[3-(3,5-difluorophenyl)-6-oxo-6H-pyridazin-1-yl-methyl]phenyl}-3-methyl-6H-pyridazin-6-one] | 1 to 1000 nM |
| O=C1OCCCN1c1cccc(Cn2nc(-c3cc(F)cc(F)c3)ccc2=O)c1 [A6, 3-{3-[3-(3,5-difluorophenyl)-6-oxo-6H-pyridazin-1-ylmethyl]phenyl}-1,3-oxazinan-2-one] | 1 to 1000 nM |
